Laboratory results from ChEMBL document CHEMBL2396630, “Backbone cyclic helix mimetic of chemokine (C-C motif) receptor 2: a rational approach for inhibiting dimerization of G protein-coupled receptors” (Bioorg Med Chem, 2013).
Calls of active or inactive are those of the source. No cut-off for these calls is given here. Numbered stars: 1 amine (or outer) side, 2 acyl side, 3 side chain; on linkers, the order of the positions; unused ones are H or OH. Bridge positions count the residues as written; N and C are the ends. Square brackets hold non-standard residues; d marks the D form. Peptide text beside a SMILES is read from it. N(2-Aminoethyl)Gly = O=C(CN(CCN[*:3])[*:1])[*:2]; CO = O=C([*:1])[*:2]; Nlys = NCCCCNCC(=O)O

How the values were obtained:
Type in all cases: cell-based
[1] = tested on: THP-1; test: Cytotoxicity against human THP1 cells assessed as cell death
[2] = biological target: C-C chemokine receptor type 2 (Homo sapiens) (UniProt P41597); test: Binding affinity to CCR2 in human THP1 cells assessed as inhibition of SDF1-mediated monocyte migration after 30 mins by Transwell assay; conditions: THP-1
[3] = biological target: C-C chemokine receptor type 2 (Homo sapiens) (UniProt P41597); test: Binding affinity to CCR2 in human THP1 cells assessed as inhibition of monocyte migration after 30 mins by Transwell assay; conditions: THP-1
[4] = biological target: C-C chemokine receptor type 2 (Homo sapiens) (UniProt P41597); test: Binding affinity to CCR2 in human THP1 cells assessed as inhibition of MCP1-mediated monocyte migration after 30 mins by Transwell assay relative to untreated control; conditions: THP-1
[5] = biological target: C-C chemokine receptor type 2 (Homo sapiens) (UniProt P41597); test: Binding affinity to CCR2 in human THP1 cells assessed as inhibition of MCP1-mediated monocyte migration at 10 uM after 30 mins by Transwell assay relative to untreated control; conditions: THP-1

C-C chemokine receptor type 2 (Homo sapiens), sequence (P41597 whole entry, looked up): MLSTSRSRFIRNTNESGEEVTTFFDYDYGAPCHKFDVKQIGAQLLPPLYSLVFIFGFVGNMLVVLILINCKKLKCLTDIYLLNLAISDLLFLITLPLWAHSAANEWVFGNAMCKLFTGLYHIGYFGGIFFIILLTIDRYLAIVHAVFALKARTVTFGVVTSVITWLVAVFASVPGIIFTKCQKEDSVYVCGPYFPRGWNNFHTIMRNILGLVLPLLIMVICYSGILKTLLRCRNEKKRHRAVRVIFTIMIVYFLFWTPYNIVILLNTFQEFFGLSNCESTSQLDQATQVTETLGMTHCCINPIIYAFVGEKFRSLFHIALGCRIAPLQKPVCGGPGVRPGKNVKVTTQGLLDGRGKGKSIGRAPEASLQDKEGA

| Compound | inhibition [4] | inhibition [5] | other results |
| --- | --- | --- | --- |
| CC[C@H](C)[C@@H]1NC(=O)[C@H](CC(C)C)NC(=O)CN(C(=O)[C@@H](NC(=O)[C@H](CC(C)C)NC(=O)[C@@H](N)CCSC)C(C)C)CCNC(=O)NCCCCN(CC(N)=O)C1=O (H-MLV[N(2-Aminoethyl)Gly]LI[Nlys]-NH2; linker 4-7 via CO) | Active | – | Activity [1]: Non-toxic; inhibition [2]: inactive; inhibition [3]: inactive |
| CC[C@H](C)[C@H](NC(=O)CN1CCCCNC(=O)NCCN(C(=O)[C@@H](N)CCSC)CC(=O)N[C@@H](C(C)C)C(=O)N[C@@H](C(C)C)C1=O)C(=O)N[C@@H](CC(C)C)C(N)=O (H-M[N(2-Aminoethyl)Gly]VV[Nlys]IL-NH2; linker 2-5 via CO) | inactive | – | – |
| CC[C@H](C)[C@H](NC(=O)[C@H](CC(C)C)NC(=O)[C@@H](NC(=O)CN1CCCCNC(=O)NCCNCC(=O)N[C@@H](CCSC)C(=O)N[C@@H](CC(C)C)C1=O)C(C)C)C(=O)N[C@@H](CC(C)C)C(N)=O (H-[N(2-Aminoethyl)Gly]ML[Nlys]VLIL-NH2; linker 1-4 via CO) | inactive | – | – |
| H-LVVLIL-OH | – | inactive | – |
| H-VVLIL-OH | – | inactive | – |

Further lines, with some results ahead:

| inhibition [4] | inhibition [5] | Compound | other results |
| --- | --- | --- | --- |
| – | inactive | CC[C@H](C)[C@H](NC(=O)[C@H](CC(C)C)NC(=O)[C@@H](N)C(C)C)C(=O)N[C@@H](CC(C)C)C(=O)O (H-VLIL-OH) | – |
| inactive | – | CC[C@H](C)[C@H](NC(=O)[C@H](CC(C)C)NC(=O)CN1CCCCNC(=O)NCCNCC(=O)N[C@@H](CC(C)C)C(=O)N[C@@H](C(C)C)C1=O)C(=O)N[C@@H](CC(C)C)C(N)=O (H-[N(2-Aminoethyl)Gly]LV[Nlys]LIL-NH2; linker 1-4 via CO) | – |
| – | Active | H-MLVVLIL-OH | – |
